“Also recorded” adds a separate entry of the source.
Experiment: Dynamic vapor sorption test
Format: physicochemical
Conditions: 25° C.; for weight increased finally: 95% RH; for sensitivity to moisture / hygroscopicity: dynamic vapor sorption isotherm, 0-95% RH
Procedure: 2. Parameters of dynamic vapor sorption test: The instrument: a dynamic moisture absorption analyzer (DVS Advantage, Surface Measurement System Ltd); Experimental temperature: 25° C.; Adsorption range: 0-95% relative humidity; Step interval: 5% relative humidity; Balance standard of weight gain: less than 0.01% weight change in 5 minutes; Longest time of balance: 120 minutes.

| weight increased finally | moisture absorbed (relative humidity 50%) | moisture absorbed (weight gain against dry weight) (relative humidity increased from 0% to 85% RH) | SMILES | sensitivity to moisture / hygroscopicity |
| --- | --- | --- | --- | --- |
| 14.72% | about 4.8% | – | OC[C@H]1O[C@@H](c2ccc(Cl)c(Cc3ccc(OCC4(F)COC4)cc3)c2)[C@H](O)[C@@H](O)[C@@H]1O [compound A, (2S,3R,4R,5S,6R)-2-(4-chloro-3-(4-((3-fluorooxetan-3-yl)methoxy)benzyl)phenyl)-6-(hydroxymethyl)tetrahydro-2H-pyran-3,4,5-triol] | sensitive to moisture |
| about 9.967% | – | 2.174% | OC[C@H]1O[C@@H](c2ccc(Cl)c(Cc3ccc(OCC4(F)COC4)cc3)c2)[C@H](O)[C@@H](O)[C@@H]1O [eutectic crystal of the complex formed by compound A and L-p] [complex of (2S,3R,4R,5S,6R)-2-(4-chloro-3-(4-((3-fluorooxetan-3-yl)methoxy)benzyl)phenyl)-6-(hydroxymethyl)tetrahydro-2H-pyran-3,4,5-triol and bis(L-proline)] | not very sensitive to moisture; also recorded: low hygroscopicity |

— patent US9738603B2, “Complex of glucose derivative and proline, crystal, preparation method and use” (SHANGHAI YINGLI PHARMACEUTICAL CO., LTD., priority 2012, dated 2017)
